Assay: in vitro
Set-up: MTT cytotoxicity assay, absorbance 450 nm, normal cell line
Conditions: human, wi-38 cells; read-out: Cytotoxicity IC50 uM WI38
Procedure: 3.2.3. […] The remaining substances and tools were from either Sigma or Invitrogen. Before performing the MTT experiment, cells were seeded on a 96-well plate at a density of 1.2–1.8 10,000 cells/well in a volume of 100 μL complete growth media + 100 μL of the test substance each well. Multiwell plates are an excellent choice for using the MTT method, which is used to track in vitro cytotoxicity. Using cells in the log phase of growth and keeping the ultimate cell density around 10^6 cells/cm^2 will produce the best results. Every test should include a blank with a full medium but no cells. Cultures should be moved from the incubator into a sterile workspace, such as a laminar flow hood. Each MTT [M-5655] vial should be reconstituted with 3 mL of medium or balanced salt solution devoid of phenol red and serum. 10% of the volume of the culture medium should be added to the reconstituted MTT solution. Incubate cultures again for 2–4 h, depending on the type of cell and the maximal cell density. […] After the incubation period, remove the cultures from the incubator and apply MTT Solubilization Solution [M-8910] in a quantity equal to the volume of the original culture media to dissolve the formazan crystals that formed. In a gyratory shaker, gentle blending will improve solubility. Trituration, or pipetting up and down, may occasionally be necessary to completely dissolve the MTT formazan crystals, especially in thick cultures at a wavelength of 450 nm, and measure the absorbance spectrophotometrically. The background absorbance of multiwell plates at 690 nm were subtracted from 450 nm data. A suitable plate 7. Incubate cultures at 37°C for 24 hrs. 8-After treatment of cells with the serial concentrations of the compound to be tested incubation is carried out for 48 h at 37 °C ,then the plates are to be examined under the inverted microscope and proceed for the MTT assay MTT – Cytotoxicity assay protocol The MTT method of monitoring in vitro cytotoxicity is well suited for use with multiwell plates. For best results, cells in the log phase of growth should be employed and final cell number should not exceed 10^6 cells/cm2. Each test should include a blank containing complete medium without cells. 1. Remove cultures from incubator into laminar flow hood or other sterile work area.
COc1cccc2c1C(=O)c1c(O)c3c(c(O)c1C2=O)C[C@@](O)(C(=O)CO)C[C@@H]3O[C@H]1C[C@H](N)[C@H](O)[C@H](C)O1 [Doxorubicin] gave a CC50 at 48 h of 14.1 µM. In the case of CCn1cc(C(=O)O)c(=O)c2cc(F)c(N3CCNCC3)cc21 [compound 1, norfloxacin], the CC50 at 48 h is reported as 54.6 µM. For CCn1cc(C(=O)O)c(=O)c2cc(F)c(N3CCN(C(=O)CC#N)CC3)cc21 [compound 6], the CC50 at 48 h was 34.1 µM. For CCOC(=O)N1CCN(c2cc3c(cc2F)c(=O)c(C(=O)O)cn3CC)CC1 [compound 7, 7-(4-(Ethoxycarbonyl)piperazin-1-yl)-1-ethyl-6-fluoro-4-oxo-1,4-dihydroquinolin-3-carboxylic acid], the CC50 at 48 h was 47.9 µM. For CCn1cc(-c2nc3ccccc3s2)c(=O)c2cc(F)c(N3CCNCC3)cc21 [compound 15, 3-(Benzo[d]thiazol-2-yl)-1-ethyl-6-fluoro-7-(piperazin-1-yl)quinolin-4(1H)-one], the CC50 at 48 h was 39.2 µM. CCn1cc(-c2nc3ccccc3s2)c(=O)c2cc(F)c(N3CCN(C(=O)CCl)CC3)cc21 [compound 16, 3-(Benzo[d]thiazol-2-yl)-7-(4-(2-chloroacetyl)piperazin-1-yl)-1-ethyl-6-fluoroquinolin-4(1H)-one] gave a CC50 at 48 h of 51.2 µM.

Reference: paper PMC12030355 (Pharmaceuticals, 2025)
